Measured values reported in patent US12103904B2, “Benzoylglycine derivatives and methods of making and using same” (Duke University, priority 2016, dated 2024).
Values after ≈ are worked out from the molar mass of the structure shown. One block for each compound: values may come before it.

Experiments:
N. gonorrhoeae FA19 = assay: Minimum Inhibitory Concentration (MIC) on GCB plates; format: cell-based, Neisseria gonorrhoeae; conditions: antibiotic-susceptible strain FA19
Description: (§1) Non-piliated variants of the indicated strains of Neisseria gonorrhoeae were grown overnight on GCB plates, resuspended in GCB broth with Kellogg's supplements I and II (Kellogg et al. (1963) Neisseria gonorrhoeae. I. Virulence genetically linked to colonial variation. J Bacteriol 85, 1274-1279), 10 mM MgCl2, and 20 mM sodium bicarbonate at a final OD600 of 0.018 (˜1×10^7 cfu/ml). Aliquots (5 μl) of each strain was spotted onto GCB plates containing the compounds at 2-fold dilution intervals. The MIC was defined as the lowest concentration of antibiotic on which fewer than 5 colonies appeared after 24 hrs of incubation.
(§2) FA19 is an antibiotic-susceptible strain (Maness, M. J., and Sparling, P. F. (1973) Multiple antibiotic resistance due to a single mutation in Neisseria gonorrhoeae. J Infect Dis 128, 321-330). 35/02 is a cephalosporin-intermediate resistant strain of N. gonorrhoeae isolated in Sweden in 2002 (Lindberg et al. (2007) Neisseria gonorrhoeae isolates with reduced susceptibility to cefixime and ceftriaxone: association with genetic polymorphisms in penA, mtrR, porB1b, and ponA. Antimicrob Agents Chemother 51, 2117-2122). This strain contains a mosaic penA gene (encoding variants of Penicillin-Binding Protein 2) associated with cephalosporin resistance, but the strain is not fully resistant. […] Lastly, F89 has an MIC of ceftriaxone=2 μg/ml (Unemo et al. (2011) High-level cefixime- and ceftriaxone-resistant N. gonorrhoeae in France: novel penA mosaic allele in a successful international clone causes treatment failure. Antimicrob Agents Chemother 56, 1273-1280).
(§3) “MIC50” refers to an amount, concentration or dosage of a particular test compound that achieves a 50% inhibition of a growth of a target organism. […] Representative results are also illustrated in Table 1.

N. gonorrhoeae 35/02 = assay: as above; format: cell-based, Neisseria gonorrhoeae; conditions: cephalosporin-intermediate resistant strain 35/02
Description: as §1, §2, §3

N. gonorrhoeae HO41 [1] = assay: as above; format: cell-based, Neisseria gonorrhoeae; conditions: ceftriaxone-resistant strain HO41
Description: as §1, §2, §3

N. gonorrhoeae F89 [2] = assay: as above; format: cell-based, Neisseria gonorrhoeae; conditions: ceftriaxone-resistant strain F89
Description: as §1, §2, §3

[3] = test system: multidrug-resistant H041 N. gonorrhoeae; assay: murine gonococcal infection model (in vivo clearance); design: species or system mice
Excerpt: FIG. 2 illustrates in vivo efficacy of Example 3 in the murine gonococcal infection model. (A) efficacy of Example 3 administered intraperitoneally. […] (B) efficacy of Example 3 administrated orally. Mice were infected with multidrug-resistant H041 N. gonorrhoeae via an established protocol.
Female Mouse Model of Infection: Female BALB/c mice (Charles River Laboratories, NCI Frederick strain of inbred BALB/cAnNCr mice, strain code 555) were allowed to acclimate to the USU animal facility in autoclaved cages and bedding and with autoclaved water and chow for 10 days. After the acclimation period and […] to bacterial inoculation (day −4), vaginal smears were stained with a modified Wright's stain (Hem3, Fisher HealthCare Protocol) and examined to identify mice in anestrus or in the diestrus stage of the estrous cycle. […] On day −2, mice were inoculated vaginally with 20 μl of strain H041 rpsL suspended in PBS; suspensions were passed through a […] filter to remove aggregates and adjusted to the absorbance A600 reading at 600 nm (A600) that was predicted to be 5×10^5 CFU/ml, which is the concentration needed to inoculate mice with the number of viable gonococci needed to infect 80% of mice (infectious dose 80; ID80). […]
Vaginal swabs were quantitatively cultured for Gc on days −1 and 0 following vaginal inoculation to confirm infection prior to treatment. […]

K. pneumoniae = assay: MIC against clinical strains; format: cell-based; conditions: Klebsiella pneumoniae; K. pneumoniae clinical strains (n = 10)
Description: (§4) The antibiotic activities of the compounds useful in the methods of the disclosure are evaluated by measurements of minimum inhibitory concentrations (MICs) using E. coli, P. aeruginosa, K. pneumoniae and B. cepacia.

P. aeruginosa = assay: MIC against clinical strains; format: cell-based; conditions: Pseudomonas aeruginosa; P. aeruginosa clinical strains (n = 10)
Description: as §4

E. coli = assay: MIC against clinical strains; format: cell-based; conditions: Escherichia coli; E. coli clinical strains (n = 10)
Description: as §4

B. cepacia = assay: MIC against clinical strains; format: cell-based; conditions: Burkholderia cepacia; B. cepacia clinical strains (n = 5)
Description: as §4

E. coli strain O18:H7:K1 = assay: murine E. coli intraperitoneal sepsis model; format: in vivo; conditions: mice infected with E. coli O18:H7:K1, single dose
Excerpt: FIG. 3 illustrates in vivo efficacy of Example 4 in the murine E. coli sepsis model. (A) dose response curves of Example 4 in a murine intraperitoneal sepsis model. Mice were infected with the E. coli strain O18:H7:K1.

N. gonorrhoeae F89 [4] = conditions: literature value (Unemo et al. 2011); cited from earlier work
N. gonorrhoeae HO41 [5] = conditions: literature value (Ohnishi et al. 2011); cited from earlier work

MIC N. gonorrhoeae FA19 (N. gonorrhoeae FA19): 0.02
MIC N. gonorrhoeae 35/02 (N. gonorrhoeae 35/02): 0.03
MIC N. gonorrhoeae HO41 (N. gonorrhoeae HO41 [1]): 0.03
MIC N. gonorrhoeae F89 (N. gonorrhoeae F89 [2]): 0.03
Compound: C[C@@](O)(C(F)F)[C@H](NCCCc1ccc(-c2ccccc2)cc1)C(=O)NO

MIC N. gonorrhoeae FA19 (N. gonorrhoeae FA19): 0.002
MIC N. gonorrhoeae 35/02 (N. gonorrhoeae 35/02): 0.02
MIC N. gonorrhoeae HO41 (N. gonorrhoeae HO41 [1]): 0.004
MIC N. gonorrhoeae F89 (N. gonorrhoeae F89 [2]): 0.007
Compound: C[C@@](O)(C(F)F)[C@H](NC(=O)c1ccc(-c2ccccc2)cc1)C(=O)NO [Example 2, N-((2S,3S)-4,4-difluoro-3-hydroxy-1-(hydroxyamino)-3-methyl-1-oxobutan-2-yl)-[1,1′-biphenyl]-4-carboxamide]

Compound: CC(C)(C)C(=O)ONC(=O)[C@@H](NC(=O)c1ccc(-c2ccccc2)cc1)[C@](C)(O)C(F)F [Example 3, N-((2S,3S)-4,4-difluoro-3-hydroxy-3-methyl-1-oxo-1-((pivaloyloxy)amino)butan-2-yl)-[1,1′-biphenyl]-4-carboxamide]
in vivo efficacy, administered orally ([3]; female BALB/c mice, vaginal infection with H041 rpsL, oral, four consecutive days): exhibited in vivo efficacy
in vivo efficacy, administered intraperitoneally ([3]; mice infected with H041 N. gonorrhoeae, intraperitoneal, once daily vs twice daily at half of the dose): once daily treatment (circles) is more effective than the twice daily treatment at half of the dose

Compound: C[C@@](O)(C(F)F)[C@H](NC(=O)c1ccc(C#CC#CC2CC2)cc1)C(=O)NO [Example 4, 4-(cyclopropylbuta-1,3-diyn-1-yl)-N-((2S,3S)-4,4-difluoro-3-hydroxy-1-(hydroxyamino)-3-methyl-1-oxobutan-2-yl)benzamide]
MIC50 (K. pneumoniae): 0.06 µg/mL (≈ 0.159 µM)
MIC90 (K. pneumoniae): 0.25 µg/mL (≈ 0.664 µM)
MIC50 (P. aeruginosa): 0.16 µg/mL (≈ 0.425 µM)
MIC90 (P. aeruginosa): 0.32 µg/mL (≈ 0.85 µM)
MIC50 (E. coli): 0.02 µg/mL (≈ 0.0531 µM)
MIC90 (E. coli): 0.02 µg/mL (≈ 0.0531 µM)
MIC50 (B. cepacia): 0.03 µg/mL (≈ 0.0797 µM)
MIC90 (B. cepacia): 0.13 µg/mL (≈ 0.345 µM)
clearance of E. coli infection (E. coli strain O18:H7:K1): cleared E. coli infections in the majority of mice
MIC N. gonorrhoeae FA19 (N. gonorrhoeae FA19): 0.016
MIC N. gonorrhoeae 35/02 (N. gonorrhoeae 35/02): 0.063
MIC N. gonorrhoeae HO41 (N. gonorrhoeae HO41 [1]): 0.026
MIC N. gonorrhoeae F89 (N. gonorrhoeae F89 [2]): 0.008

Compound: CO/N=C(\C(=O)N[C@@H]1C(=O)N2C(C(=O)O)=C(CSc3nc(=O)c(=O)[nH]n3C)CS[C@H]12)c1csc(N)n1 [ceftriaxone]
MIC of ceftriaxone, strain F89 (N. gonorrhoeae F89 [4]): 2 µg/mL
MIC of ceftriaxone, strain H041 (N. gonorrhoeae HO41 [5]): 2 to 4 µg/mL
